In patent US20240327411A1, “SIRT6 ACTIVATORS” (The Board of Regents of The University of Texas System, priority 2022, published 2024):
pEC50: −log10 of the molar value. “Also recorded” adds a separate entry of the source.

How the values were obtained:
Sirt6 [1] = molecular target: T1, Sirt6 (Homo sapiens, UniProt Q8N6T7); experiment: Sirt6-dependent peptide deacetylation, FLUOR DE LYS / Sirt6 fluorometric activity kit; format: biochemical; settings: mean ± SD, at least two independent experiments; for Activation Fold 30 μM: compound at 30 μM; for Activation Fold 100 μM: compound at 100 μM
Procedure: (§2) Sirt6/Sirt1/Sirt2/Sirt3 activity was tested by Activity Assay Kits (Abcam) according to the manufacturer's instruction with minor modification. […] All experiments were conducted at room temperature.

Sirt6 [2] = molecular target: T1, Sirt6; experiment: Nucleosome test: Sirt6-dependent H3K9 deacetylation of nucleosomes from HEK293T cells, Western blot; format: biochemical; settings: 100 μM, 30° C., 60 minutes
Procedure: (§1) . Nucleosomes extracted from HEK293T cells were incubated with 100 μM of selected compounds or Vehicle at 30° C. for 60 minutes. Acetylated H3K9 and total H3 were detected by Western blot. The level of acetylated H3K9 was quantified by Image Lab software. FIGS. 5B and 5C show the cell viability which was assessed by MTT assay. R28 cells were treated with 30 μM or 100 μM compounds for 24 hours. Data were presented as mean±SEM. The experiment was repeated at least three times. ***p<0.001; ****p<0.0001.
Next, effects of selected compounds were explored for Sirt6-dependent deacetylation of complete nucleosomes extracted from human embryonic kidney (HEK) 293T cells, as nucleosomes represent more physiologically relevant substrates. […]. Briefly, HEK 293T cells in 100 mm dish were lysed with lysis buffer supplemented with PIC and PMSF for 30 min. After centrifugation for 10 min at 5000 rpm at 4° C., supernatant was removed and nuclei pellet was resuspended with digestion buffer supplemented with PIC and PMSF for 5 min at 37° C. Working enzymatic sharing cocktail was added to digest the chromatin, and EDTA was added after incubation to stop the digestion. Digested nucleosome was obtained in the supernatant after centrifugation for 10 min at 15000 rpm at 4° C. and the concentration was quantified by measuring the absorbance at […]. 20 μg nucleosome was incubated in solution (1× buffer, 0.5 μL recombinant Sirt6 and […] NAD, from SIRT6 ACTIVITY ASSAY KIT) for 60 min. To test the effects of the compounds on Sirt6 activity, corresponding compound or DMSO control was added before incubation. The reaction mixture was analyzed by Western blot.
Proteins were extracted from cells with PIERCE RIPA BUFFER (89901, ThermoFisher Scientific), and protein concentration was determined using PIERCE BCA PROTEIN ASSAY KIT (23225, ThermoFisher Scientific). Equal amounts of protein were loaded and separated by SDS-PAGE gel. Next, separated proteins were transferred onto Nitrocellulose Blotting Membranes (A29457237, GE Healthcare Life science), and then the membranes were blocked by 5% non-fat dry milk. After incubation with corresponding primary antibodies against H3K9ac, H3 and Sirt6 at a 1:1000 dilution, or α-tubulin at a 1:5000 dilution, goat anti-mouse or goat anti-rabbit secondary antibodies at a 1:5000 dilution were applied. Finally, membranes were incubated with enhanced chemiluminescent and protein bands were detected by CHEMIDOC imaging system (Bio-Rad). Image-Lab software was used to analyze the intensities of the protein bands.

[3] = test system: retinal precursor cells (R28); experiment: MTT cell viability assay in R28 cells; format: cell-based; settings: 24 hours
Procedure: as §1, with “FIGS. 5A-5C: FIGS. 5A-5C display the deacetylation effect and cytotoxicity of selected compounds. […] Nucleosomes” for “. Nucleosomes”
R28 cells were seeded in 96 well plates at a density of 1×10^4/well overnight, then treated with compounds for 24 h. MTT (MilliporeSigma) was added to cells (20 μL/well) and incubated for 3.5 h. After medium was removed, 100 μL dimethyl sulfoxide (DMSO) was added into each well. Absorbance was measured at 540 nm using a microplate reader.

H1299 cells [4] = experiment: Acetylated H3K9 / total H3 in H1299 cells, Western blot; format: cell-based; settings: 30 μM, 24 hours
PLC/PRF/5 cells [5] = experiment: Acetylated H3K9 / total H3 in PLC/PRF/5 cells, Western blot; format: cell-based; settings: 30 μM, 24 hours
H1299 cells [6] = experiment: Colony formation assay in H1299 cells; format: cell-based; settings: 30 μM, one week
PLC/PRF/5 cells [7] = experiment: Colony formation assay in PLC/PRF/5 cells; format: cell-based; settings: 30 μM, one week
BV2 cells = experiment: LPS-induced inflammatory gene mRNA expression in BV2 cells, q-PCR; format: cell-based, murine; settings: for LPS-induced expression of IL-1β, IL-6, MCP-1, and TNFα / ICAM-1 induction: BV2 cells, 100 ng/mL LPS 6 hours, mRNA; for LPS-induced expression of IL-1β, IL-6, MCP-1, and TNFα: 30 μM pretreatment 30 minutes; for ICAM-1 induction: 30 μM; for LPS-induced proinflammatory cytokine/chemokine production: summary statement
SARS-CoV-2 = experiment: microbe, parasite or virus in culture; format: cell-based
Sirt1 = molecular target: T2, Sirt1 (Homo sapiens, UniProt Q96EB6); experiment: Sirt1 deacetylation activity assay kit; settings: time course, FIG. 3
T2 sequence (Q96EB6 1-747): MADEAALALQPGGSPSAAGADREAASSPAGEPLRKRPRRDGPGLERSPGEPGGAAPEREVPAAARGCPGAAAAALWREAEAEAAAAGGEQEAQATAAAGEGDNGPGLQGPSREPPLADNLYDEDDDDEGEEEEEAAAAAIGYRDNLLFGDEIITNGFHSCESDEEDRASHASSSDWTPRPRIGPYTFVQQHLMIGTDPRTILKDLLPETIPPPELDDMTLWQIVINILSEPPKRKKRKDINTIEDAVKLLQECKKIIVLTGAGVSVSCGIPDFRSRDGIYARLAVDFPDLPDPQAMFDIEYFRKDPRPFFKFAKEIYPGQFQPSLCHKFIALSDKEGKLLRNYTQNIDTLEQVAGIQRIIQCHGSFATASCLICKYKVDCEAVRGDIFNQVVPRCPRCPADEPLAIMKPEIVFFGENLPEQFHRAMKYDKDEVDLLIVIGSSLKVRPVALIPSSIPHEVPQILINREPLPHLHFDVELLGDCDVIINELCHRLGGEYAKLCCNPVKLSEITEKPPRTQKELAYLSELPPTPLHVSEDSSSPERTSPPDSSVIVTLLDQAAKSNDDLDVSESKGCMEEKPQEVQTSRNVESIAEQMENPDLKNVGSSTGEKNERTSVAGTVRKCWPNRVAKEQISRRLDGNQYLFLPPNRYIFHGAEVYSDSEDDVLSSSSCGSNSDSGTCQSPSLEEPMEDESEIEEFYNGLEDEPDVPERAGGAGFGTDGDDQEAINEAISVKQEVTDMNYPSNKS
Procedure: as §2

A549-hACE2 cells = experiment: Cell viability assay in A549-hACE2 cells; settings: 50 μM, 48 h
Sirt3 = molecular target: T3, Sirt3 (Homo sapiens, UniProt Q9NTG7); experiment: Sirt3 deacetylation activity assay kit; settings: time course, FIG. 3
T3 sequence (Q9NTG7 1-399): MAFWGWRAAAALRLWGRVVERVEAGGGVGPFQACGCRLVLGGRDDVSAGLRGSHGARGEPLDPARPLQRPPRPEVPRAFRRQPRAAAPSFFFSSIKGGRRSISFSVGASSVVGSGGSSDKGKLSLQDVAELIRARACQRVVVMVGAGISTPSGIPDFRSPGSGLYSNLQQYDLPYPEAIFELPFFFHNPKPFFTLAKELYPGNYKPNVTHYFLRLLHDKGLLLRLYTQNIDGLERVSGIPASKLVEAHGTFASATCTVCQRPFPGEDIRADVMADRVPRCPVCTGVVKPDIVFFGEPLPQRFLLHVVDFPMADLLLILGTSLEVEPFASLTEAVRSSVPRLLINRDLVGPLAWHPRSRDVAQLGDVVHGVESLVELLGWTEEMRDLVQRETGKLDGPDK
Procedure: as §2

[8] = test system: human hepatocellular carcinoma (HCC) cells; settings: literature, cited from earlier work
HCC tumor = settings: mouse xenograft models; literature; cited from earlier work
[9] = in mice; literature; cited from earlier work
[10] = test system: colorectal cancer (CRC) cell lines; settings: various CRC cell lines; literature; cited from earlier work
CRC tumor = settings: cell line- and patient-derived xenografts, APCmin/+ spontaneous CRC model; literature; cited from earlier work
Sirt6 [11] = molecular target: T1, Sirt6; settings: literature value; cited from earlier work
Sirt1, 2, and 3 = settings: literature; cited from earlier work

T1 sequence (Q8N6T7 whole entry): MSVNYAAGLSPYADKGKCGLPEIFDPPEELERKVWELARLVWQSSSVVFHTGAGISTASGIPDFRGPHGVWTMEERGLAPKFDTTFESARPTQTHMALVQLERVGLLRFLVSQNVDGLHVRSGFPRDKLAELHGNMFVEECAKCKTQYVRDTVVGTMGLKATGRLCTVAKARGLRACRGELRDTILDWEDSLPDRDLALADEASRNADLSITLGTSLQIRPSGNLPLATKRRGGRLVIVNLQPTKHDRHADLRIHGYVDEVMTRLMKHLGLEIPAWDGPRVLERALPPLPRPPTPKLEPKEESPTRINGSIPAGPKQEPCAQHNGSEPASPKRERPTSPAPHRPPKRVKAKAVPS

| SMILES | Activation Fold 30 μM (Sirt6 [1]) [fold] | Activation Fold 100 μM (Sirt6 [1]) [fold] | acetylation of H3K9 in the nucleosome test (Sirt6 [2]) | toxicity on retinal precursor cells (R28) ([3]; 30 μM) | toxicity on retinal precursor cells (R28) ([3]; 100 μM) | Sirt6 deacetylation of H3K9 (acetylated H3K9 to total H3) (H1299 cells [4]) | Sirt6 deacetylation of H3K9 (acetylated H3K9 to total H3) (PLC/PRF/5 cells [5]) | colony formation (H1299 cells [6]) | colony formation (PLC/PRF/5 cells [7]) | LPS-induced expression of IL-1β, IL-6, MCP-1, and TNFα (BV2 cells) | ICAM-1 induction (BV2 cells) | LPS-induced proinflammatory cytokine/chemokine production (BV2 cells) | potency in inhibiting SARS-CoV-2 infection (in words) (SARS-CoV-2) | effect on Sirt1 deacetylation (Sirt1) | cytotoxicity at the highest tested concentration (A549-hACE2 cells) | other results |
| --- | --- | --- | --- | --- | --- | --- | --- | --- | --- | --- | --- | --- | --- | --- | --- | --- |
| OCCN1CCN(c2ncccc2C2Nc3ccccc3-n3cccc32)CC1 (centres unmarked) [Compound 35, 2-(4-(3-(4,5-Dihydropyrrolo[1,2-a]quinoxalin-4-yl)pyridin-2-yl)piperazin-1-yl)ethan-1-ol] | 2.92 ± 0.06 | 5.72 ± 0.69 | significantly decreased the acetylation of H3K9 | no obvious toxicity | no obvious toxicity | no obvious influence | no obvious influence | only a slight inhibitory effect | only a slight inhibitory effect | strongly inhibited | slight inhibition | strongly repressed | micromolar potency | no significant effects | none of these compounds exhibited significant cytotoxicity | – |
| COCCN1CCN(c2ncccc2C2Nc3ccccc3-n3cccc32)CC1 (centres unmarked) [Compound 36, 4-(2-(4-(2-Methoxyethyl)piperazin-1-yl)pyridin-3-yl)-4,5-dihydropyrrolo[1,2-a]quinoxaline] | 3.17 ± 0.21 | 6.06 ± 0.13 | significantly decreased the acetylation of H3K9 | no obvious toxicity | no obvious toxicity | significantly activated Sirt6 to deacetylate H3K9 | significantly activated Sirt6 to deacetylate H3K9 | significantly inhibited; also recorded: about half | significantly inhibited; also recorded: about half | strongly inhibited | – | strongly repressed | micromolar potency | no significant effects | none of these compounds exhibited significant cytotoxicity | decrease of acetylated H3K9 when Sirt6 was knockdown by siRNA (H1299 cells [4]; Sirt6 siRNA): abolished; decrease of acetylated H3K9 when Sirt6 was knockdown by siRNA (PLC/PRF/5 cells [5]; Sirt6 siRNA): abolished |
| CN(C)CCN1CCN(c2ncccc2C2Nc3ccccc3-n3cccc32)CC1 (centres unmarked) [Compound 38, 2-(4-(3-(4,5-Dihydropyrrolo[1,2-a]quinoxalin-4-yl)pyridin-2-yl)piperazin-1-yl)-N,N-dimethylethan-1-amine] | 3.83 ± 0.46 | 7.38 ± 0.6 | significantly decreased the acetylation of H3K9 | no obvious toxicity | – | – | – | – | – | strongly inhibited | slight inhibition | strongly repressed | micromolar potency | no significant effects | none of these compounds exhibited significant cytotoxicity | pEC50 (SARS-CoV-2; Severe acute respiratory syndrome coronavirus 2, 48 h, read-out: EC50, SARS-CoV-2 infection): 5.03; effect on Sirt3 deacetylation (Sirt3): no significant effects |
| COC(=O)c1cc(NS(=O)(=O)c2cc(Cl)cc(Cl)c2)ccc1S(=O)(=O)Nc1cc(Br)c(F)cc1C [MDL-800] | – | – | – | – | – | – | – | – | – | – | – | – | – | – | – | H3K9 and H3K56 deacetylation ([8]; human HCC cells, dose-dependently): significantly promoted; proliferation of HCC cells [8]: inhibited their proliferation; HCC tumor growth (HCC tumor): suppressed HCC tumor growth |
| Cc1cc(F)c(Br)cc1NS(=O)(=O)c1ccc(NS(=O)(=O)c2cc(Cl)cc(Cl)c2)cc1CN1CCOC[C@H]1C [MDL-811] | – | – | – | – | – | – | – | – | – | – | – | – | – | – | – | bioavailability (F) [9]: 92.96%; antiproliferative effects [10]: broad antiproliferative effects; anti-tumor efficacy (CRC tumor): in vivo anti-tumor efficacy |
| c1cncc(C2Nc3ccccc3-n3cccc32)c1 (centres unmarked) [UBCS039, reference compound] | – | – | – | – | – | – | – | – | – | strongly inhibited | – | – | micromolar potency | – | – | maximum activation (Emax) of Sirt6 deacetylation (Sirt6 [11]): ~2 fold; effects on basal Sirt1, 2, and 3 deacetylation activities (Sirt1, 2, and 3): no obvious effects |
